Patent US10544185B2 (Suzhou Zelgen Biopharmaceuticals Co., Ltd., priority 2015, dated 2020)

Target: T1, farnesoid X receptor (FXR) (Homo sapiens, UniProt Q96RI1)
T1 sequence (Q96RI1 1-486): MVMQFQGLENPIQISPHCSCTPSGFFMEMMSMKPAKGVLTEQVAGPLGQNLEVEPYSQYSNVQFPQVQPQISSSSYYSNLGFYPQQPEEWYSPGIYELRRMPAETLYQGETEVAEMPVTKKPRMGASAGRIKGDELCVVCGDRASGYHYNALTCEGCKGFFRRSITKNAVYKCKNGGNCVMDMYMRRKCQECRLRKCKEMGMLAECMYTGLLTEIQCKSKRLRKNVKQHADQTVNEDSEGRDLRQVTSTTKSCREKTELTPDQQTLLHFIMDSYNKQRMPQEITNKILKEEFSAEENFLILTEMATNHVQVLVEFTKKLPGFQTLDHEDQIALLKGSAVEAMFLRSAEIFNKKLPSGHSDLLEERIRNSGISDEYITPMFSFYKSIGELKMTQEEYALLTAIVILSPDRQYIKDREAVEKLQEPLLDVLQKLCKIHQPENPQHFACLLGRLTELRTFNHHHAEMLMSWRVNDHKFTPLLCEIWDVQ
Assay: Recruitment Coactivator Assay (AlphaScreen) for FXR activation
Type: biochemical
Conditions: read-out: activating activity (EC50) for FXR
Method: The farnesoid X receptor (FXR) activation of the compounds of the present invention is determined by Recruitment Coactivator Assay, i.e. AlphaScreen. Specific in vitro pharmacodynamic evaluation experimental program has referred to the literature J Pharmacol Exp Ther 350:56-68, July 2014.

“3α, 7[…]-Dihydroxy-6α-(Ethyl-d4)-5β-Cholan-24-Acid [Example 7]” showed an EC50 of under 200 nM.
